According to patent publication EP2790511B1 (Merck Sharp & Dohme Corp., priority 2011, dated 2013):

molecular target: T1, hROMK (hKir1.1) (Homo sapiens, UniProt P48048); experiment: Thallium Flux Assay; type: cell-based; settings: HEK293 cells stably expressing hROMK (hKir1.1), FLIPR-Tetra; read-out: Thallium Flux IC50
T1 construct: expressed in transfected cells
T1 sequence (P48048 1-391): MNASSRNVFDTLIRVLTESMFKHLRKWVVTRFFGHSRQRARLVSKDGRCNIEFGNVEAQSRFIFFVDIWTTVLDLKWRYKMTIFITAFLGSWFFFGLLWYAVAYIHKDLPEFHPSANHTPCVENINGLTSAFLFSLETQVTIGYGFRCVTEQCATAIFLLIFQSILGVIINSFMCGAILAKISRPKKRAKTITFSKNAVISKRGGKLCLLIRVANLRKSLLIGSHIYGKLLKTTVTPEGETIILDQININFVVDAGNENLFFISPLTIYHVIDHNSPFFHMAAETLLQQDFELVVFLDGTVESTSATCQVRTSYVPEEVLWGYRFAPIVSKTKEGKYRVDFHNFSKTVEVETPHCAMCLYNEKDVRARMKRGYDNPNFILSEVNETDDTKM
Description: Cell Culture Conditions- HEK293 cells stably expressing hROMK (hKir1.1) were grown at 37°C in a 10%CO2 humidified incubator in complete growth media: Dulbecco's Modified Eagle Medium supplemented with non-essential amino acids, Penicillin/Streptomycin/Glutamine, G418 and FBS. At >80% confluency, aspirate the media from the flask and rinse with 10 mL Calcium/Magnesium-free PBS. […] To dislodge the cell, gently bang the side of the flask with your hand. Triturate the cells completely and then transfer the cells to 25 mL complete media. Centrifuge at 1,500 rpm for 6 min followed by resuspension in complete growth media and determine cell concentration. […] Under ideal growth conditions and appropriate tissue culture practices, this cell line is stable for 40-45 passages.
• FluxOR™ Reagent (Component A) • FluxOR™ Assay Buffer (Component B) - 10X Concentrate • PowerLoad™ Concentrate (Component C) - 100X Concentrate • Probenecid (Component D) - Lyophilized sample is kept at -20°C. Water soluble, 100X after solubilization in 1 mL water. […] Store at 4°C. • Thallium sulfate (Tl2SO4) Concentrate (Component G) - 50 mM in water. Store at 4°C • DMSO (dimethyl sulfoxide, Component H) - 1 mL (100%)
• 1000X FluxOR™ Reagent: Reconstitute a vial of component A in 100 µl DMSO; Mix well; Store 10 µl aliquots at -20°C • 1X FluxOR™ Assay Buffer: Dilute Component B 10-fold with water; Adjust pH to 7.4 with Hepes/NaOH; Filter and store at 4°C • Probenecid/Assay Buffer: 100 mL of 1X FluxOR™ Assay Buffer; 1 mL of reconstituted component D; Store at 4°C • Loading Buffer (per microplate): 10 µl 1000X FluxOR™ Reagent; 100 µl component C; 10 mL Probenecid/Assay Buffer • Compound Buffer (per microplate): 20 mL Probenecid/Assay Buffer; 0.3 mM ouabain (10 mM ouabain in water can be stored in amber bottle/aluminum foil at room temperature); Test compound • 1X FluxOR™Chloride-Free Buffer: Prepare 1X working solution in water. Can be stored at room temperature • Stimulant Buffer (prepared at 5X final concentration in 1X FluxOR™Chloride-Free Buffer): 7.5 mM Thallium sulfate and 0.75 mM Potassium sulfate (to give a final assay concentration of 3 mM Thallium/ 0.3 mM Potassium). Store at 4°C when not in use. If kept sterile, this solution is good for months.
Assay protocol- The ROMK channel functional thallium flux assay is performed in 384 wells, using the FLIPR-Tetra instrument. HEK-hKir1.1 cells are seeded in Poly-D-Lysine microplates and kept in a 37°C-10%CO2 incubator overnight. On the day of the experiment, the growth media is replaced with the FluxOR™ reagent loading buffer and incubated, protected from light, at ambient temperature (23-25°C) for 90 min. The loading buffer is replaced with assay buffer ± test compound followed by 30 min incubation at ambient temperature, where the Thallium/Potassium stimulant is added to the microplate.
• 1. Seed HEK-hKir1.1 cells (50 µl at 20,000 cells/well) in 384-well PDL coated Microplates • 2. Allow cells to adhere overnight in humidified 37°C/10%CO2 incubator • 3. Completely remove cell growth media from microplate and replace with 25 µl loading buffer • 4. Incubate Microplate at room temperature, protected form light, for 90 min • 5. Remove loading buffer and replace with 25 µl 1x Assay Buffer ± test compound. • 6. Incubate microplate at room temperature, protected form light, for 30 min • 7. […] Excitation = 400 nm, Emission = 460 & 580 nm. Collect data for ∼ 10 min.
Data Calculation- The fluorescence intensity of wells containing 3 µM of a standard control ROMK inhibitor of the present invention is used to define the ROMK-sensitive component of thallium flux. Fluorescence in the presence of test compounds is normalized to control values to provide % fluorescence change.

Structure (SMILES)	IC50
O=C1OCc2cc([C@@H]3CN4CCN(C(=O)Cc5ccc(-n6cnnn6)cn5)C[C@H]4CO3)ccc21 [Example 27, 5-[(3R,9aS)-8-{[5-(1H-tetrazol-1-yl)pyridin-2-yl]acetyl}octahydropyrazino[2,1-c][1,4]oxazin-3-yl]-2-benzofuran-1(3H)-one]	100 nM
O=C1OCc2cc([C@H]3CN4CCN(C(=O)Cc5ccc(-n6cnnn6)cn5)C[C@H]4CO3)ccc21 [Example 28, 5-[(3S,9aS)-8-{[5-(1H-tetrazol-1-yl)pyridin-2-yl]acetyl}octahydropyrazino[2,1-c][1,4]oxazin-3-yl]-2-benzofuran-1(3H)-one]	180 nM
Cc1nc(-n2cnnn2)ccc1CC(=O)N1CCN2C[C@@H](c3ccc4c(c3)CCOC4=O)OC[C@@H]2C1 [Example 30, 6-[(3R,9aS)-8-{[2-methyl-6-(1H-tetrazol-1-yl)pyridin-3-yl]acetyl}octahydropyrazino[2,1-c][1,4]oxazin-3-yl]-3,4-dihydro-1H-isochromen-1-one]	160 nM
Cc1c([C@H]2CN3CCN(C(=O)Cc4ccc(-n5cnnn5)cn4)C[C@@H]3CO2)ccc(F)c1C#N [Example 31, 6-fluoro-2-methyl-3-[(3S,9aR)-8-{[5-(1H-tetrazol-1-yl)pyridin-2-yl]acetyl}octahydropyrazino[2,1-c][1,4]oxazin-3-yl]benzonitrile]	160 nM
COc1cc([C@H]2CN3CCN(C(=O)Cc4ccc(-n5cnnn5)nc4)C[C@@H]3CO2)ccc1C#N [Example 39, 2-methoxy-4-[(3S,9aR)-8-{[6-(1H-tetrazol-1-yl)pyridin-3-yl]acetyl}octahydropyrazino[2,1-c][1,4]oxazin-3-yl]benzonitrile]	260 nM
COc1cc([C@@H]2CN3CCN(C(=O)Cc4ccc(-n5cnnn5)nc4)C[C@@H]3CO2)ccc1C#N [Example 40, 2-methoxy-4-[(3R,9aR)-8-{[6-(1H-tetrazol-1-yl)pyridin-3-yl]acetyl}octahydropyrazino[2,1-c][1,4]oxazin-3-yl]benzonitrile]	70 nM
COc1cc([C@@H]2CN3CCN(C(=O)Cc4ccc(-n5cnnn5)nc4)C[C@H]3CO2)ccc1C#N [Example 41, 2-methoxy-4-[(3R,9aS)-8-{[6-(1H-tetrazol-1-yl)pyridin-3-yl]acetyl}octahydropyrazino[2,1-c][1,4]oxazin-3-yl]benzonitrile]	230 nM
Cc1cc(-n2cnnn2)ncc1CC(=O)N1CCN2C[C@@H](c3ccc4c(c3)CCOC4=O)OC[C@@H]2C1 [Example 44, 6-[(3R,9aS)-8-{[4-methyl-6-(1H-tetrazol-1-yl)pyridin-3-yl]acetyl}octahydropyrazino[2,1-c][1,4]oxazin-3-yl]-3,4-dihydro-1H-isochromen-1-one]	170 nM
COc1cc([C@@H]2CN3CCN(C(=O)Cc4cnc(-n5cnnn5)cc4C)C[C@@H]3CO2)ccc1C#N [Example 45, 2-methoxy-4-[(3R,9aR)-8-{[4-methyl-6-(1H-tetrazol-1-vl)pvridin-3-yl]acetyl}octahydropyrazino[2,1-c][1,4]oxazin-3-yl]benzonitrile]	250 nM
O=C1OCc2c1ccc([C@H]1CN3CCN(C(=O)Cc4ccc(-n5cnnn5)nc4)C[C@H]3CO1)c2Br [Example 48, 4-bromo-5-[(3S,9aS)-8-{[6-(1H-tetrazol-1-yl)pyridin-3-yl]acetyl}octahydropyrazino[2,1-c][1,4]oxazin-3-yl]-2-benzofuran-1(3H)-one]	150 nM
N#Cc1c(F)ccc([C@@H]2CN3CCN(C(=O)Cc4ccc(-n5cnnn5)nc4)C[C@H]3CO2)c1Cl [Example 51, 2-chloro-6-fluoro-3-[(3R,9aS)-8-{[6-(1H-tetrazol-1-yl)pyridin-3-yl]acetyl}octahydropyrazino[2,1-c][1,4]oxazin-3-yl]benzonitrile]	50 nM

same assay, conditions: Thallium Flux IC50

Structure (SMILES)	IC50
Cc1c([C@H]2CN3CCN(C(=O)Cc4ccc(-n5cnnn5)nc4)C[C@@H]3CO2)ccc2c1COC2=O [Example 24, 4-methyl-5-[(3S,9aR)-8-{[6-(1H-tetrazol-1-yl)pyridin-3-yl]acetyl}octahydropyrazino[2,1-c][1,4]oxazin-3-yl]-2-benzofuran-1(3H)-one]	160 nM
Cc1c([C@H]2CN3CCN(C(=O)Cc4ccc(-n5cnnn5)cn4)C[C@H]3CO2)ccc2c1COC2=O [Example 29, 4-methyl-5-[(3S,9aS)-8-{[5-(1H-tetrazol-1-yl)pyridin-2-yl]acetyl}octahydropyrazino[2,1-c][1,4]oxazin-3-yl]-2-benzofuran-1(3H)-one]	110 nM
Cc1c([C@@H]2CN3CCN(C(=O)Cc4ccc(-n5cnnn5)cn4)C[C@@H]3CO2)ccc(F)c1C#N [Example 32, 6-fluoro-2-methyl-3-[(3R,9aR)-8-{[5-(1H-tetrazol-1-yl)pyridin-2-yl]acetyl}octahydropyrazino[2,1-c][1,4]oxazin-3-yl]benzonitrile]	80 nM
Cc1cc(-n2cnnn2)ncc1CC(=O)N1CCN2C[C@H](c3ccc4c(c3C)COC4=O)OC[C@@H]2C1 [Example 42, 4-methyl-5-[(3S,9aS)-8-{[4-methyl-6-(1H-tetrazol-1-yl)pyridin-3-yl]acety}octahydropyrazino[2,1-c][1,4]oxazin-3-yl]-2-benzofuran-1(3H)-one]	210 nM
Cc1cc(-n2cnnn2)ncc1CC(=O)N1CCN2C[C@H](c3ccc(F)c(C#N)c3C)OC[C@@H]2C1 [Example 43, 6-fluoro-2-methyl-3-[(3S,9aS)-8-{[4-methyl-6-(1H-tetrazol-1-vl)pvridin-3-yl]acetyl}octahydropyrazino[2,1-c][1,4]oxazin-3-yl]benzonitrile]	90 nM
O=C1OCc2c1ccc([C@@H]1CN3CCN(C(=O)Cc4ccc(-n5cnnn5)nc4)C[C@H]3CO1)c2Cl [Example 46, 4-chloro-5-[(3R,9aS)-8-{[6-(1H-tetrazol-1-yl)pyridin-3-yl]acetyl}octahydropyrazino[2,1-c][1,4]oxazin-3-yl]-2-benzofuran-1(3H)-one]	670 nM
O=C1OCc2c1ccc([C@H]1CN3CCN(C(=O)Cc4ccc(-n5cnnn5)nc4)C[C@H]3CO1)c2Cl [Example 47, 4-chloro-5-[(3S,9aS)-8-{[6-(1H-tetrazol-1-yl)pyridin-3-yl]acetyl}octahydropyrazino[2,1-c][1,4]oxazin-3-yl]-2-benzofuran-1(3H)-one]	90 nM
COc1ccc([C@H]2CN3CCN(C(=O)Cc4ccc(-n5cnnn5)nc4)C[C@H]3CO2)c(C)c1C#N [Example 49, 6-methoxy-2-methyl-3-[(3S,9aS)-8-{[6-(1H-tetrazol-1-vl)pvridin-3-yl]acetyl}octahydropyrazino[2,1-c][1,4]oxazin-3-yl]benzonitrile]	290 nM
N#Cc1c(F)ccc([C@H]2CN3CCN(C(=O)Cc4ccc(-n5cnnn5)cn4)C[C@H]3CO2)c1Cl [Example 52, 2-chloro-6-fluoro-3-[(3S,9aS)-8-{[5-(1H-tetrazol-1-yl)pyridin-2-yl]acetyl}octahydropyrazino[2,1-c][1,4]oxazin-3-yl]benzonitrile]	110 nM
